Laboratory results published in ChEMBL document CHEMBL4715703, “Engineering of a Novel Simplified Human Insulin-Like Peptide 5 Agonist” (J Med Chem, 2016).
Where a SMILES comes first, the peptide text is derived from it. Bridges are numbered along the chain shown (N, C = ends). Roman numbers before positions name the chains, in order.

Key:
Relaxin-3 receptor 2 [1] = target: T1, Relaxin-3 receptor 2 (Homo sapiens, UniProt Q8TDU9); assay: Agonist activity at human RXFP4 expressed in CHO-K1 cells assessed as reduction in forskolin-induced cAMP production by pCRE beta-galactosidase reporter assay; assay type: functional, cell-based
Relaxin-3 receptor 2 [2] = target: T1, Relaxin-3 receptor 2; assay: Displacement of europium-labeled Eu(A)-mINSL5 from human RXFP4 expressed in CHO-K1 cells; assay type: cell-based

T1 sequence (Q8TDU9 whole entry): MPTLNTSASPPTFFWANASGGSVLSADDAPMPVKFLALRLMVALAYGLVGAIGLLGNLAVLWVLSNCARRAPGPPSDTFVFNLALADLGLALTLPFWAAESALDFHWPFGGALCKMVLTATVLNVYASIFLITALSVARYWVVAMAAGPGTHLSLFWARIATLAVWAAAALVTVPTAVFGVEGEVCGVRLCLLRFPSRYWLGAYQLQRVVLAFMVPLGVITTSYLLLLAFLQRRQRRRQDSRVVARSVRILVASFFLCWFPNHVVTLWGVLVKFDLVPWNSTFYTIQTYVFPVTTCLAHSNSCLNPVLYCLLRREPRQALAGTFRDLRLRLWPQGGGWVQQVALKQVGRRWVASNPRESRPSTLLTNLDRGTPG

Compound | EC50 (Relaxin-3 receptor 2 [1]) [nM] | Ki (Relaxin-3 receptor 2 [2]) [nM]
CC[C@H](C)[C@@H]1NC(=O)[C@H](Cc2ccc(O)cc2)NC(=O)[C@H]([C@@H](C)CC)NC(=O)[C@H](C(C)C)NC(=O)[C@H]([C@@H](C)O)NC(=O)[C@H](CCCNC(=N)N)NC(=O)[C@H](C(C)C)NC(=O)[C@H](Cc2ccc(O)cc2)NC(=O)[C@H](CC(=O)O)NC(=O)[C@H](CC(C)C)NC(=O)CNC(=O)[C@@H](NC(=O)[C@H](CC(C)C)NC(=O)[C@H](CCCCN)NC(=O)[C@@H](NC(=O)[C@@H](NC(=O)[C@H](CCC(N)=O)NC(=O)[C@H](CCCNC(=N)N)NC(=O)[C@@H](N)CO)[C@@H](C)O)C(C)C)CSSC[C@@H]2NC(=O)[C@@H](NC(=O)[C@H](CC(C)C)NC(=O)[C@@H](NC(=O)[C@H](CCC(N)=O)NC(=O)[C@H](CC(C)C)NC(=O)[C@H](CC(=O)O)NC(=O)C3CCC(=O)N3)[C@@H](C)O)CSSC[C@@H](NC(=O)CNC(=O)[C@H](CC(=O)O)NC(=O)[C@H]([C@@H](C)O)NC2=O)C(=O)N[C@H](CO)C(=O)N[C@H](CCSC)C(=O)N[C@H]([C@H](C)O)C(=O)N[C@H](CC(=O)O)C(=O)N[C@H](CC(C)C)C(=O)N[C@H](CO)C(=O)N[C@H](C)C(=O)N[C@H](CC(C)C)C(=O)N[C@@H](C(=O)O)CSSC[C@H](C(=O)N[C@@H](C)C(=O)N[C@@H](CO)C(=O)N[C@@H](CO)C(=O)N[C@@H](CCCNC(=N)N)C(=O)N[C@@H](Cc2c[nH]c3ccccc23)C(=O)O)NC1=O (stereo not given in full) | 2.75 | –
CC[C@H](C)[C@@H]1NC(=O)[C@H](C(C)C)NC(=O)[C@H]([C@@H](C)O)NC(=O)[C@H](CCCNC(=N)N)NC(=O)[C@H](C(C)C)NC(=O)[C@H](Cc2ccc(O)cc2)NC(=O)[C@H](CC(=O)O)NC(=O)[C@H](CC(C)C)NC(=O)CNC(=O)[C@@H](NC(=O)[C@H](CC(C)C)NC(=O)[C@H](CCCCN)NC(=O)[C@@H](NC(=O)[C@@H](NC(=O)[C@H](CCC(N)=O)NC(=O)[C@H](CCCNC(=N)N)NC(=O)[C@@H](N)CO)[C@@H](C)O)C(C)C)CSSC[C@@H]2NC(=O)[C@@H](NC(=O)[C@H](CC(C)C)NC(=O)[C@H](C)NC(=O)[C@H](CCC(N)=O)NC(=O)[C@H](CC(C)C)NC(=O)[C@H](CC(=O)O)NC(=O)[C@@H](N)CCCNC(=N)N)CSSC[C@H](NC(=O)CNC(=O)[C@H](CCC(=O)O)NC(=O)[C@H](CCCNC(=N)N)NC2=O)C(=O)N[C@@H](CO)C(=O)N[C@@H](CCSC)C(=O)N[C@@H](CCCCN)C(=O)N[C@@H](CCC(=O)O)C(=O)N[C@@H](CC(C)C)C(=O)N[C@@H](CO)C(=O)N[C@@H]([C@@H](C)O)C(=O)N[C@@H](CC(C)C)C(=O)N[C@H](C(=O)O)CSSC[C@@H](C(=O)N[C@@H](C)C(=O)N[C@@H](CO)C(=O)N[C@@H](CO)C(=O)N[C@@H](CCCNC(=N)N)C(=O)N[C@@H](Cc2c[nH]c3ccccc23)C(=O)O)NC(=O)[C@H]([C@@H](C)CC)NC(=O)[C@@H](Cc2ccc(O)cc2)NC1=O | 0.51 | 1.58
CC[C@H](C)[C@@H]1NC(=O)[C@H](Cc2ccc(O)cc2)NC(=O)[C@H]([C@@H](C)CC)NC(=O)[C@H](C(C)C)NC(=O)[C@H]([C@@H](C)O)NC(=O)[C@H](CCCNC(=N)N)NC(=O)[C@H]([C@@H](C)CC)NC(=O)[C@H](Cc2ccc(O)cc2)NC(=O)[C@H](CCC(=O)O)NC(=O)[C@H](CC(C)C)NC(=O)CNC(=O)[C@@H](NC(=O)[C@H](CC(C)C)NC(=O)[C@H](CCCNC(=N)N)NC(=O)[C@@H](NC(=O)[C@H](CO)NC(=O)[C@H](CCC(=O)O)NC(=O)[C@@H](N)CCCCN)C(C)C)CSSC[C@H](N)C(=O)N[C@@H](CCCNC(=N)N)C(=O)N[C@@H](CC(=O)O)C(=O)NCC(=O)N[C@@H](C)C(=O)N[C@@H](CO)C(=O)N[C@@H](CCSC)C(=O)N[C@@H](CCCCN)C(=O)N[C@@H](CC(=O)O)C(=O)N[C@@H](CC(C)C)C(=O)N[C@@H](CO)C(=O)N[C@@H](C)C(=O)N[C@@H](CC(C)C)C(=O)N[C@H](C(=O)O)CSSC[C@@H](C(=O)N[C@@H](C)C(=O)N[C@@H](CO)C(=O)N[C@@H](CO)C(=O)N[C@@H](CCCNC(=N)N)C(=O)N[C@@H](Cc2c[nH]c3ccccc23)C(=O)O)NC1=O (I: H-KESVRLCGLEYIRTVIYICASSRW-OH / II: H-CRDGASMKDLSALC-OH; disulfide I:7-II:1, I:19-II:14) | 39.8 | 23.4
CC[C@H](C)[C@@H]1NC(=O)[C@H](Cc2ccc(O)cc2)NC(=O)[C@H]([C@@H](C)CC)NC(=O)[C@H](C(C)C)NC(=O)[C@H]([C@@H](C)O)NC(=O)[C@H](CCCNC(=N)N)NC(=O)[C@H]([C@@H](C)CC)NC(=O)[C@H](Cc2ccc(O)cc2)NC(=O)[C@H](CCC(=O)O)NC(=O)[C@H](CC(C)C)NC(=O)CNC(=O)[C@@H](NC(=O)[C@H](CC(C)C)NC(=O)[C@H](CCCNC(=N)N)NC(=O)[C@@H](NC(=O)[C@H](CO)NC(=O)[C@H](CCC(=O)O)NC(=O)[C@@H](N)CCCCN)C(C)C)CSSC[C@H](N)C(=O)N[C@@H](CCCNC(=N)N)C(=O)N[C@@H](CC(=O)O)C(=O)NCC(=O)N[C@@H](C)C(=O)N[C@@H](CO)C(=O)N[C@@H](CCSC)C(=O)N[C@@H]([C@@H](C)O)C(=O)N[C@@H](CC(=O)O)C(=O)N[C@@H](CC(C)C)C(=O)N[C@@H](CO)C(=O)N[C@@H](C)C(=O)N[C@@H](CC(C)C)C(=O)N[C@H](C(=O)O)CSSC[C@@H](C(=O)N[C@@H](C)C(=O)N[C@@H](CO)C(=O)N[C@@H](CO)C(=O)N[C@@H](CCCNC(=N)N)C(=O)N[C@@H](Cc2c[nH]c3ccccc23)C(=O)O)NC1=O (I: H-KESVRLCGLEYIRTVIYICASSRW-OH / II: H-CRDGASMTDLSALC-OH; disulfide I:7-II:1, I:19-II:14) | 603 | 912
CC[C@H](C)[C@@H]1NC(=O)[C@H](Cc2ccc(O)cc2)NC(=O)[C@H]([C@@H](C)CC)NC(=O)[C@H](C(C)C)NC(=O)[C@H]([C@@H](C)O)NC(=O)[C@H](CCCNC(=N)N)NC(=O)[C@H]([C@@H](C)CC)NC(=O)[C@H](Cc2ccc(O)cc2)NC(=O)[C@H](CCC(=O)O)NC(=O)[C@H](CC(C)C)NC(=O)CNC(=O)[C@@H](NC(=O)[C@H](CC(C)C)NC(=O)[C@H](CCCNC(=N)N)NC(=O)[C@@H](NC(=O)[C@H](CO)NC(=O)[C@H](CCC(=O)O)NC(=O)[C@@H](N)CCCCN)C(C)C)CSSC[C@H](N)C(=O)N[C@@H](CCCNC(=N)N)C(=O)N[C@@H](CCC(=O)O)C(=O)NCC(=O)N[C@@H](C)C(=O)N[C@@H](CO)C(=O)N[C@@H](CCSC)C(=O)N[C@@H](CCCCN)C(=O)N[C@@H](CCC(=O)O)C(=O)N[C@@H](CC(C)C)C(=O)N[C@@H](CO)C(=O)N[C@@H]([C@@H](C)O)C(=O)N[C@@H](CC(C)C)C(=O)N[C@H](C(=O)O)CSSC[C@@H](C(=O)N[C@@H](C)C(=O)N[C@@H](CO)C(=O)N[C@@H](CO)C(=O)N[C@@H](CCCNC(=N)N)C(=O)N[C@@H](Cc2c[nH]c3ccccc23)C(=O)O)NC1=O (I: H-KESVRLCGLEYIRTVIYICASSRW-OH / II: H-CREGASMKELSTLC-OH; disulfide I:7-II:1, I:19-II:14) | 15.1 | 22.4
CC[C@H](C)[C@@H]1NC(=O)[C@H](Cc2ccc(O)cc2)NC(=O)[C@H]([C@@H](C)CC)NC(=O)[C@H](C(C)C)NC(=O)[C@H]([C@@H](C)O)NC(=O)[C@H](CCCNC(=N)N)NC(=O)[C@H]([C@@H](C)CC)NC(=O)[C@H](Cc2ccc(O)cc2)NC(=O)[C@H](CCC(=O)O)NC(=O)[C@H](CC(C)C)NC(=O)CNC(=O)[C@@H](NC(=O)[C@H](CC(C)C)NC(=O)[C@H](CCCNC(=N)N)NC(=O)[C@@H](NC(=O)[C@H](CO)NC(=O)[C@H](CCC(=O)O)NC(=O)[C@@H](N)CCCCN)C(C)C)CSSC[C@H](N)C(=O)N[C@@H]([C@@H](C)O)C(=O)N[C@@H](CC(=O)O)C(=O)NCC(=O)N[C@@H](C)C(=O)N[C@@H](CO)C(=O)N[C@@H](CCSC)C(=O)N[C@@H]([C@@H](C)O)C(=O)N[C@@H](CC(=O)O)C(=O)N[C@@H](CC(C)C)C(=O)N[C@@H](CO)C(=O)N[C@@H](C)C(=O)N[C@@H](CC(C)C)C(=O)N[C@H](C(=O)O)CSSC[C@@H](C(=O)N[C@@H](C)C(=O)N[C@@H](CO)C(=O)N[C@@H](CO)C(=O)N[C@@H](CCCNC(=N)N)C(=O)N[C@@H](Cc2c[nH]c3ccccc23)C(=O)O)NC1=O (I: H-KESVRLCGLEYIRTVIYICASSRW-OH / II: H-CTDGASMTDLSALC-OH; disulfide I:7-II:1, I:19-II:14) | 100 | 145
CC[C@H](C)[C@@H]1NC(=O)[C@H](Cc2ccc(O)cc2)NC(=O)[C@H]([C@@H](C)CC)NC(=O)[C@H](C(C)C)NC(=O)[C@H]([C@@H](C)O)NC(=O)[C@H](CCCNC(=N)N)NC(=O)[C@H](C(C)C)NC(=O)[C@H](Cc2ccc(O)cc2)NC(=O)[C@H](CC(=O)O)NC(=O)[C@H](CC(C)C)NC(=O)CNC(=O)[C@@H](NC(=O)[C@H](CC(C)C)NC(=O)[C@H](CCCCN)NC(=O)[C@@H](NC(=O)[C@@H](NC(=O)[C@H](CCC(N)=O)NC(=O)[C@H](CCCNC(=N)N)NC(=O)[C@@H](N)CO)[C@@H](C)O)C(C)C)CSSC[C@H](N)C(=O)N[C@@H](CCCNC(=N)N)C(=O)N[C@@H](CCC(=O)O)C(=O)NCC(=O)N[C@@H](C)C(=O)N[C@@H](CO)C(=O)N[C@@H](CCSC)C(=O)N[C@@H](CCCCN)C(=O)N[C@@H](CCC(=O)O)C(=O)N[C@@H](CC(C)C)C(=O)N[C@@H](CO)C(=O)N[C@@H]([C@@H](C)O)C(=O)N[C@@H](CC(C)C)C(=O)N[C@H](C(=O)O)CSSC[C@@H](C(=O)N[C@@H](C)C(=O)N[C@@H](CO)C(=O)N[C@@H](CO)C(=O)N[C@@H](CCCNC(=N)N)C(=O)N[C@@H](Cc2c[nH]c3ccccc23)C(=O)O)NC1=O (I: H-SRQTVKLCGLDYVRTVIYICASSRW-OH / II: H-CREGASMKELSTLC-OH; disulfide I:8-II:1, I:20-II:14) | 33.9 | 18.6
I: H-KESVRLCGLEYIRTVIYICASSRW-OH / II: H-RDLQALCCREGCSMKELSTLC-OH (disulfide I:7-II:8, I:19-II:21, II:7-II:12) | 0.35 | 5.5
